Biological target: T1, human LXRalpha LBD (Homo sapiens, UniProt Q13133, A196R)
T1 construct: from amino acids 155 of hLXRalpha to 447; made in house; host or cells: SF9 insect cells (baculovirus) for LXRalpha LBD; E. coli BL21 for Tif2 fragment
T1 sequence (Q13133 155-447 A196R): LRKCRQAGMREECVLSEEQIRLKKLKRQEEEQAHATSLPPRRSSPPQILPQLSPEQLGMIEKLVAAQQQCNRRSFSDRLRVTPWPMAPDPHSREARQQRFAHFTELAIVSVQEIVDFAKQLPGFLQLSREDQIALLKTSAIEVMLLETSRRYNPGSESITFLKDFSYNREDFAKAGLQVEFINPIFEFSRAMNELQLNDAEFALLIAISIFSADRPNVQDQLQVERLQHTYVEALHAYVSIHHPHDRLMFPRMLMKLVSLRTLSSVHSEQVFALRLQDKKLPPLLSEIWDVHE
T1 sequence (Q15596 548-878 partner limits assumed): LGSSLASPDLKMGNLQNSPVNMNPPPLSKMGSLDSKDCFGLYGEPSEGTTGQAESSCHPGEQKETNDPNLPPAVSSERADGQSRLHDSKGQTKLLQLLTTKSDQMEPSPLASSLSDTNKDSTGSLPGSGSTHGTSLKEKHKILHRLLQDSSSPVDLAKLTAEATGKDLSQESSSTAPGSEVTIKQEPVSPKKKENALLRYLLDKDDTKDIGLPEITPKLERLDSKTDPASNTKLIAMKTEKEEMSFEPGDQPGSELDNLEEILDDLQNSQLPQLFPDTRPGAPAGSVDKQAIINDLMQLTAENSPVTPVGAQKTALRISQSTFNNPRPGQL
Assay: In vitro screening for LXR binding to coactivator Tif2 (LANCE TR-FRET)
Format: biochemical
Description: For screening purposes a GST and 6× His fusion of the LBD (from amino acids 155 of hLXRalpha to 447) of human LXRalpha was constructed by first cloning a Gateway cassette (Invitrogen) in frame into the Sma I site of the pAGGHLT Polylinker (Pharmingen). Then a PCR fragment specifically amplified from human liver cDNA was cloned into the resulting pACGHLT-GW following the manufacturers instructions for Gateway cloning (Invitrogen) to yield pACGHLT-GW-hLXRalphaLBD.
100% sequence integrity of all recombinant products was verified by sequencing. Recombinant Baculovirus was constructed from pACGHLT-GW-hLXRalphaLBD using the Pharmingen Baculovirus Expression vector system according to instructions of the manufacturer. Monolayer cultures of SF9 cells were infected by the virus as recommended by Pharmingen or 200 ml cultures of 1×10^6 cells/ml grown in 2 liter Erlenmeyer flasks on an orbital shaker at 30 rpm were infected by 10 ml of same virus stock. In both cases cells were harvested 3 days after infection. All cell growth was performed in Gibco SF900 II with Glutamine (Invitrogen) medium without serum supplementation at 28° C. Since SF9 cells contain significant amounts of endogenous 30 GST, purification was performed via His and not via GST affinity chromatography.
To this end instructions of Pharmingen for purification of recombinant His tagged proteins from SF9 cells were followed with the following modifications: All detergents were omitted from the buffers and cells were lysed on ice by 5 subsequent sonication pulses using a sonicator needle at maximum power.
All eluates were dialyzed against 20 mM Tris/HCl pH 6.8, 300 mM KCl; 5 mM MgCl2;1 mM DTT; 0.2 mM PMSF; 10% Glycerol. A typical dialyzed eluate fraction contained the fusion protein at a purity of more than 80%. Total protein concentration was 0.1-0.3 mg/ml.
For E. coli expression of a NR coactivator, pDest17-hTif2BD expressing an NR interaction domain from amino acids 548-878 of human Tif2 (Acc. No: XM011633 Ref Seq) tagged by 6 N-terminal His residues was constructed. Therefore, a PCR fragment specifically amplified from human liver cDNA was subcloned into pDest 17 (Invitrogen) following the manufacturers instructions for Gateway cloning (Invitrogen). Primers used for Amplification were: […]
For E. coli expression plasmid DNA was transformed into chemically competent E. coli BL21 (Invitrogen, USA) and cells were grown to an OD600 of 0.4-0.7 before expression was induced by addition of 0.5 mM IPTG according instructions of the manufacturer (Invitrogen). After induction for 8 hours at 30° C. cells were harvested by centrifugation for 10 minutes at 5000×g. Fusion proteins were affinity purified using Ni—NTA Agarose (QIAGEN) according to the instructions of the manufacturer.
Recombinant Tif2 construct was dialyzed against 20 mM Tris/HCL pH 7.9; 60 mM KCl; 5 mM MgCl2; 1 mM DTT, 0.2 mM PMSF; 10% glycerol. A typical dialyzed eluate fraction contained the fusion protein at a purity of more than 80%. Total protein concentration was 0.1-0.3 mg/ml.
The TIF2 fragment was subsequently biotinylated by addition of 5-40 ul/ml Tif2 fraction of a Biotinamidocaproate N-Hydroxysuccinimide-ester (Sigma) solution (20 mg/ml in DMSO). Overhead rotating samples were incubated for 2 hours at room temperature. Unincorporated label was then separated using G25 Gel filtration chromatography (Pharmacia Biotech, Sweden). Protein containing fractions from the column were pooled and tested for activity in the assay as described below.
For screening of compound libraries as provided for by the methods shown below in the examples for substances which influence the LXR/Tif 2 interaction, the PerkinElmer LANCE technology is applied. This method relies on the binding dependent energy transfer from a donor to an acceptor fluorophore attached to the binding partners of interest. […]

Row | EC50 (FRET assay, read-out: EC50 at LXR (half-maximal effective concentration)) | Compound | active as agonist / partial agonist of the LXR human nuclear receptor
1 | – | C=CCn1c(N2[C@@H]3CC(C)(C)C[C@@]2(C)C3)nc2cccc(F)c2c1=O [formula (12)] | active as partial agonist
2 | 2000 nM | C=CCn1c(N2C3CC(C)(C)CC2(C)C3)nc2ccc(I)cc2c1=O (stereo not shown) [formula (9)] | –
3 | – | CC(C)n1c(N2C3CC(C)(C)CC2(C)C3)nc2ccc(I)cc2c1=O (stereo not shown) [formula (10)] | active as partial agonist
4 | – | CCCn1c(N2[C@@H]3CC(C)(C)C[C@@]2(C)C3)nc2cccc(F)c2c1=O [formula (11)] | active as partial agonist
